Measurements: patent US8202910B2 (Sequella, Inc., priority 2006, dated 2012)
In brackets after ≈: the same amount, converted by molar mass. Like-named read-outs stand apart in the source and are kept apart here.

Key:
[1] = tested on: MDR strain TN587; test: microbe, parasite or virus in culture; format: cell-based, Mycobacterium tuberculosis; conditions: for Drug Resistance of MDR Strain: 587 W; for MIC: Mycobacterium tuberculosis
[2] = tested on: MDR Strain TN576; test: microbe, parasite or virus in culture; format: cell-based, Mycobacterium tuberculosis; conditions: for Drug Resistance of MDR Strain: 576 W1; for MIC: Mycobacterium tuberculosis
[3] = tested on: MDR strain TN3086 (3806); test: microbe, parasite or virus in culture; format: cell-based, Mycobacterium tuberculosis; conditions: for MIC: Mycobacterium tuberculosis; for Drug Resistance of MDR Strain: 3806 W1
[4] = tested on: EMB-resistant strain; test: microbe, parasite or virus in culture; format: cell-based, M. tuberculosis; conditions: Mycobacterium tuberculosis
[5] = tested on: M. tuberculosis clinical isolates (drug susceptible and drug resistant); format: cell-based; conditions: more than 30 clinical isolates
[6] = tested on: INH-resistant MTB strain; test: microbe, parasite or virus in culture; format: cell-based, M. tuberculosis; conditions: Mycobacterium tuberculosis

Row | Compound | Drug Resistance of MDR Strain [1] | Drug Resistance of MDR Strain [2] | MIC ([1]; TN587, strain 587) | MIC ([2]; strain 576) | MIC ([3]; strain 3806) | Drug Resistance of MDR Strain [3] | also measured
1 | O=C(O)c1cn(C2CC2)c2cc(N3CCNCC3)c(F)cc2c1=O [Cip, Ciprofloxacin] | S | S |  |  |  |  | 
2 | C[C@@H]1[C@H]2C[C@@H](C[C@H]1NCCNC1CCCCCCC1)C2(C)C [Compound 59, N-(Cyclooctyl)-N′-(1R, 2R, 3R, 5S)-(−)-isopinocampheylethane-1,2-diamine] |  |  | 0.05 µg/mL | 0.1 µg/mL | 0.05 µg/mL |  | 
3 | CC(C)=CCC/C(C)=C/CNCCNC1C2CC3CC(C2)CC1C3 (stereo not drawn) [Compound 109, N-Geranyl-N′-(2-adamanthyl)ethane-1,2-diamine] |  |  | 0.2 µg/mL | 0.2 µg/mL | 0.1 µg/mL |  | MIC [4]: 0.5 µg/mL (≈ 1.51 µM); MIC range [5]: 0.16 to 0.64 µg/mL; MIC [6]: 0.25 µg/mL (≈ 0.756 µM)
4 | N[C@@H]1CON=C1O [Cyc, Cycloserine] | S | S |  |  |  |  | 
5 | CC[C@@H](CO)NCCN[C@@H](CC)CO [EMB, Ethambutol, reference compound] | R | R |  |  |  | R | MIC ([1]; TN587, read-out: MIC of ethambutol, MDR strain, TN587): 12.5 to 25 µM; MIC ([2]; read-out: MIC of ethambutol, MDR strain, TN576): 12.5 to 25 µM; MIC ([3]; read-out: MIC of ethambutol, MDR strain, TN3086): 12.5 to 25 µM
6 | CCc1cc(C(N)=S)ccn1 [Eth, Ethionamide] | S | R |  |  |  | S | 
7 | NNC(=O)c1ccncc1 [INH, Isoniazid] | R | R |  |  |  | R | 
8 | NC[C@H]1O[C@H](O[C@H]2[C@H](O)[C@@H](O[C@H]3O[C@H](CO)[C@@H](O)[C@H](N)[C@H]3O)[C@H](N)C[C@@H]2N)[C@H](O)[C@@H](O)[C@@H]1O [Kan, Kanamycin] | R | R |  |  |  | R | 
9 | CC1(C)CC2CC(C)(CN2CCNC[C@@H]2CCC3C[C@@H]2C3(C)C)C1 [MP 116] |  |  | 6.25 µg/mL | 3.15 µg/mL | 3.15 µg/mL |  | 
10 | C[C@@H]1C2C[C@@H](C[C@H]1NCCNC[C@@H]1CCC3C[C@@H]1C3(C)C)C2(C)C [MP 117] |  |  | 3.15 µg/mL | 3.15 µg/mL | 3.15 µg/mL |  | 
11 | CO[C@H]1/C=C/O[C@@]2(C)Oc3c(C)c(O)c4c(O)c(c(/C=N/N5CCN(C)CC5)c(O)c4c3C2=O)NC(=O)/C(C)=C\C=C\[C@H](C)[C@H](O)[C@@H](C)[C@@H](O)[C@@H](C)[C@H](OC(C)=O)[C@@H]1C [RIF, Rifampicin] | R | R |  |  |  | R | 
12 | CC1(C)C2CCC(CNCCNCC(c3ccccc3)c3ccccc3)[C@@H]1C2 (stereo partly drawn) [RL 241] |  |  | 1.5 µg/mL | 1.5 µg/mL | 1.5 µg/mL |  | 
13 | [H]/N=C(/N)N[C@H]1[C@H](O)[C@@H](O)[C@H](O[C@@H]2O[C@@H](C)[C@](O)(C=O)[C@H]2O[C@@H]2O[C@@H](CO)[C@H](O)[C@@H](O)[C@@H]2NC)[C@@H](N/C(N)=N\[H])[C@@H]1O [SM, Streptomycin] | R | R |  |  |  | R | 
14 | Capreomycin | S | R |  |  |  |  | 
